Results on 2 compounds are retold here after patent EP0356128A2, “3-(Aminopropyl)methyl phosphinic acid as a therapeutic agent” (SMITH KLINE & FRENCH LABORATORIES LIMITED, priority 1988, dated 1990).

One assay has as its target GABAB receptor (Rattus norvegicus, UniProt Q9Z0U4). The assay is described as follows: biochemical.
A further assay has as its target GABAA receptor. The assay is described as follows: [3H]-GABA radioligand binding assay, GABAA binding (in the presence of baclofen). As to conditions: inhibition of specific GABAA binding to rat synaptic membranes; [³H]-GABA 10 nM, baclofen 100 µM; read-out: IC₅₀ (nM) GABAA. As to the method:
Male rats were killed by decapitation.
The final tissue was resuspended in fresh buffer for assay and transferred in 0.8 ml aliquots to microtubes (0.5 - 1.0 mg protein.tube).

Molecules are shown by their SMILES.

Sequence of GABAB receptor (Q9Z0U4 17-960 limits assumed): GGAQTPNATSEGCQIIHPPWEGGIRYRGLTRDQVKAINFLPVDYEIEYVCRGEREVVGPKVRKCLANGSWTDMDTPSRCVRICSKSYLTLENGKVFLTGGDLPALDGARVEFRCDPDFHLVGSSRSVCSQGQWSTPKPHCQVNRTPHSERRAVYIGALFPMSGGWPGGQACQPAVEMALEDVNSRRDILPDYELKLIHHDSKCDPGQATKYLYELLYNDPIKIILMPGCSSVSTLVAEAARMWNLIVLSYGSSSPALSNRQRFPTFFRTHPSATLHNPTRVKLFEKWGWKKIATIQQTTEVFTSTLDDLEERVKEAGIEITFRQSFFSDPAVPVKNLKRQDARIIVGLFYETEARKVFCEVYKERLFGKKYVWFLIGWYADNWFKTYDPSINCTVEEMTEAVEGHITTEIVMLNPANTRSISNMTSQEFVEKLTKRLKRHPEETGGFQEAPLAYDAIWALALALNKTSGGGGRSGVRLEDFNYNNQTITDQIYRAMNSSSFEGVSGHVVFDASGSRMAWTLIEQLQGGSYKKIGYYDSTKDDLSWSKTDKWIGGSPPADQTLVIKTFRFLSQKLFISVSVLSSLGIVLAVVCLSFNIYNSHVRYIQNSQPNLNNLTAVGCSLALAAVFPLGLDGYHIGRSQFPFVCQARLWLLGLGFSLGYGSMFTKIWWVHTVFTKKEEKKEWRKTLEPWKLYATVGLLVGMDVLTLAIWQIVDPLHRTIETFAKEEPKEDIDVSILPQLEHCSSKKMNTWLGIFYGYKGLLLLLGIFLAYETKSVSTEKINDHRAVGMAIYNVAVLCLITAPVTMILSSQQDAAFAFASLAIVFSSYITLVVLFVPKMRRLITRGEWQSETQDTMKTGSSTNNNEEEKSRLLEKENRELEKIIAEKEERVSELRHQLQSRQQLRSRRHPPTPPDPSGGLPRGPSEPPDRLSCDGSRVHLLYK
Sequence of GABAB receptor (O88871 41-940 partner): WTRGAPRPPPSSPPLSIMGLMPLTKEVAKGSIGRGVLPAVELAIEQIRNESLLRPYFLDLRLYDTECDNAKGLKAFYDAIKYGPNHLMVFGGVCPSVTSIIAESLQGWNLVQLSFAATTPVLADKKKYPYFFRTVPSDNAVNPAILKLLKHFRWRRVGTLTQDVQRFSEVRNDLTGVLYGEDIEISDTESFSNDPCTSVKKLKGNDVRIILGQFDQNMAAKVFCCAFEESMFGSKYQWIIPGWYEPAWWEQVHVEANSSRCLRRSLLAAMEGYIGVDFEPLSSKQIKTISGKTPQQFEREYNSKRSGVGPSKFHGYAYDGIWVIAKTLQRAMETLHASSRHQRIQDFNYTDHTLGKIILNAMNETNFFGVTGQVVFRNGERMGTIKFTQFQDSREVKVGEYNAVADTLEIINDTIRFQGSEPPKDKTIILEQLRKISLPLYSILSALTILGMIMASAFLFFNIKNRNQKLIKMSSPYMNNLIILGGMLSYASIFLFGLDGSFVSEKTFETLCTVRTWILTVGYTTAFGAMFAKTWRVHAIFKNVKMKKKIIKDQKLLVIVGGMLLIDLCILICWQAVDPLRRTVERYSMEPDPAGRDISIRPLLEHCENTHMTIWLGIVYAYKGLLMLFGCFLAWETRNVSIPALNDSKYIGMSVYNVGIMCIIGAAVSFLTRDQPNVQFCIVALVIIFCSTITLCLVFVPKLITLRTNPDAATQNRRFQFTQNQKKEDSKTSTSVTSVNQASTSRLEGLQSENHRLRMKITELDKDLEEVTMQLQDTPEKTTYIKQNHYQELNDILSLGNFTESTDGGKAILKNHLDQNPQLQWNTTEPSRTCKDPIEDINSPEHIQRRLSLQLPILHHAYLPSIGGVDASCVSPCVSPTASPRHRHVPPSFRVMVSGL
Method for GABAB receptor: Male rats were killed by decapitation. […] The homogenate was centrifuged at 1000 g to give a crude nuclear pellet (P₁) and a supernatant fraction enriched in myelin, synaptosomes and mitochrondria. The supernatant was collected and recentrifuged for 20 minutes at 20,000 g. The resulting pellet (P₂) was lysed by resuspension in distilled water and the mixture centrifuged for 20 minutes at 8,000 g. The supernatant was used to rinse off the upper layer of the pellet with the aid of a Pasteur pipette. The combined suspension was centrifuged for 20 minutes at 48,000 g. The final crude synaptic membranes were washed twice with distilled water and were either resuspended in buffer for further washing prior to use as fresh tissue or were stored frozen at -20°C. […]
[³H]-GABA (10 nM final concentrations 65 Ci/mmol) was added to each tube with or without varying concentrations of unlabelled test compound (final volume 1.0 ml). […] GABAB binding was determined by using ³H-GABA in the presence of isoguvacine (40 µM), a GABAA receptor ligand. […]
Non-specific binding was subtracted from the total amount of radioactivity bound in the absence of any drug to yield the amount of ligand specifically bound. The amount of radioactivity specifically bound at a given concentration of non-radioactive drug was expressed as a percentage of the total ligand specifically bound.

On to `NCCC[PH](=O)O` [3-aminopropyl phosphinic acid], for which the values for the IC50 against GABAB receptor and on GABAA receptor were 1 nM and 420 nM, respectively.

As for `CP(=O)(O)CCCN` [Example 1, 3-(aminopropyl)methyl phosphinic acid], the IC50 on GABAA receptor stood at 23000 nM.
